Entries after “also recorded” stand apart in the source; their conditions may differ.
Assays:
[1] = test system: CXCL12-responsive GZMB+ CD8+ T cells; test: Chemotaxis of GZMB+ CD8+ T cells to recombinant CXCL12 (transwell); assay type: cell-based, human; conditions: 50 ng/ml CXCL12; cells primed with CD3/CD28 + IL-12 or type-1 polarized DCs, then DMOG
[2] = test system: CXCR4+/GZMB+ CD8+ T cells; test: FACS staining for CXCR4 and GZMB in ex vivo induced CTLs exposed to a hypoxia mimic; assay type: cell-based, human
[3] = test system: CXCR4 on NK cells; test: CXCR4 expression on IL-12+IL-15-activated NK cells, by flow cytometry; assay type: cell-based; conditions: overnight with IL-12p70 (20 ng/ml) and IL-15 (20 ng/ml), 200 μM CoCl2
Protocol: Negatively Isolated (EasySep) NK cells were cultured overnight with NK cell activators, IL-12p70 (20 ng/ml) and IL-15 (20 ng/ml), in absence or presence of 200 μM CoCl2 (Hypoxia mimic; HIF1α activator). Absolute numbers (A) and percentage (B) of CXCR4 NK cells are calculated by flow cytometry and are depicted in the figure.

Row | Structure (SMILES) | responsiveness to CXCL12 (migration of GZMB+ CD8+ T cells) [1] | CXCR4 expression (CXCR4+/GZMB+ double positive CD8+ T cells) ([2]; CD3-CD28 beads +/- IL-12 (5 ng/ml) 6 days or type-1 polarized DCs, then 3 days with 200 μM DMOG) | intracellular GZMB expression in arising effector cells ([2]; CD8+ T cells primed in type-1-polarizing conditions, DMOG) | CXCR4 expression on NK cells (absolute numbers and percentage) [3]
1 | COC(=O)CNC(=O)C(=O)OC [DMOG, dimethyloxalylglycine] | highest migration of GZMB^+ CTL; also recorded: increases CXCR4 expression and responsiveness to CXCL12 | promote high levels of CXCR4; also recorded: increases CXCR4 expression | without affecting the intracellular GZMB expression | –
2 | [Cl][Co][Cl] [CoCl2, cobalt chloride] | – | – | – | increases CXCR4 expression
